Where a name gives a salt, the structure may show the parent alone. Bounds are passed on as bounds.

T1 sequence (Q14833 33-912): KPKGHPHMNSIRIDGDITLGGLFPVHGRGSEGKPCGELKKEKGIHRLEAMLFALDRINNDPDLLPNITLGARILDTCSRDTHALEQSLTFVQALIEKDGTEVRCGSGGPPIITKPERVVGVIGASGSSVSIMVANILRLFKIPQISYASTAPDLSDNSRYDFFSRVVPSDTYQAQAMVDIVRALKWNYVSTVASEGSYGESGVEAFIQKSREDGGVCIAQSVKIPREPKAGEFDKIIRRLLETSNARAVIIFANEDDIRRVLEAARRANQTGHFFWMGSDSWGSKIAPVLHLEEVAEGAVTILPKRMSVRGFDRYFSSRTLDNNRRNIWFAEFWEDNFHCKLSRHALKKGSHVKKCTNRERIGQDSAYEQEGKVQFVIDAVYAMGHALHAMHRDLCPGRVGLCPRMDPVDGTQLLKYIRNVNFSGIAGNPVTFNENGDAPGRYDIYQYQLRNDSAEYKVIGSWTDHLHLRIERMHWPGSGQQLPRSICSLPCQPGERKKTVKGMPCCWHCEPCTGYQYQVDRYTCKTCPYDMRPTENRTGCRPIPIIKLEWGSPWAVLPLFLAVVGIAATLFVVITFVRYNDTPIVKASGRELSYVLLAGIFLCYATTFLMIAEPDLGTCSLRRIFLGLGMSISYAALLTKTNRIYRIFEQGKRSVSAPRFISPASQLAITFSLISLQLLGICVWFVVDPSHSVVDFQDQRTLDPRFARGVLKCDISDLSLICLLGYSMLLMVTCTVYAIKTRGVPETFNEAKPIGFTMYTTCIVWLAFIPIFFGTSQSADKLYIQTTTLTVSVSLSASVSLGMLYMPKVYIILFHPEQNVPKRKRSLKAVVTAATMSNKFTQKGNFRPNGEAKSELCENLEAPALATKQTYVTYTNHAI

One assay concerns the target T1, human mGluR4 (hmGluR4) (Homo sapiens, UniProt Q14833).
T1 construct: expressed in transfected cells; host or cells: HEK-293 cells, transient co-transfection by electroporation
The experiment in a line: Calcium assay EC50 determination, positive allosteric modulator activity on hmGluR4 transiently over-expressed in HEK-293 cells. The assay is classed as cell-based. As to conditions: PAM mode with EC20 glutamate; hmGluR4 in HEK-293 cells; intracellular calcium (Fluo4AM); read-out: mGluR4 positive allosteric modulator activity, half maximal effective concentration (EC50). As for the experimental part: Compounds are tested successively for their agonist and positive allosteric modulator activities on human mGluR4 (hmGluR4) transiently over-expressed in HEK-293 cells. Compounds exert agonist activity if, by themselves in absence of glutamate, they are able to activate hmGluR4; and they exert positive allosteric modulator activity if they increase the action of glutamate.
HEK-293 cells are maintained in Modified Eagle's Medium supplemented with 10% Foetal Calf Serum, 1% Penicillin/Streptomycin and 1% non-essential amino acids at 37° C./5% CO2.
Cells are co-transfected by electroporation with four DNA plasmids encoding hmGluR4, a chimeric G protein allowing redirection of the activation signal to intracellular calcium pathway, and glutamate transporters to decrease extracellular glutamate concentration so as to limit receptor desensitization. After transfection, cells are cultured for 24 h at 37° C./5% CO2.
Calcium Assay EC50 determination
Receptor activity is detected by changes in intracellular calcium measured using the fluorescent Ca^2+ sensitive dye, Fluo4AM (Molecular Probes).
On the day of the assay, culture medium is aspirated and replaced during 3 hours by medium without serum supplemented with 1% Glutamax, 1% Penicillin/Streptomycin and 1% non-essential amino acids. Then, cells are washed with freshly prepared buffer B (HBSS 1× (PAA), Hepes 20 mM, MgSO4-7H2O 1 mM, Na2CO3 3.3 mM, CaCl2-2H2O 1.3 mM, 0.1% BSA, Probenecid 2.5 mM) and loaded at 37° C. in 5% CO2 for 1.5 hours with buffer B containing 1 μM Fluo4AM, 0.1 mg/mL Pluronic Acid, 7 μg/mL Glutamate Pyruvate Transaminase and 2 mM sodium pyruvate. Afterwards cells are washed twice with buffer B. Then cells are detached using StemPro Accutase (Fisher Scientific), resuspended in buffer B and seeded in 384 well plate at a density of 30,000 cells per well. Addition of compounds and intracellular Ca^2+ measurements (excitation 485 nm, emission 525 nm) are performed by the fluorescence microplate reader FLIP^Tetra (Molecular Devices).
Agonist and positive allosteric modulator activities of compounds are consecutively evaluated on the same cell plate. Agonist activity is first tested during 10 minutes with the addition of compound alone on the cells. Then, cells are stimulated by an EC20 glutamate concentration and fluorescence is recorded for additional 3 minutes. EC20 glutamate concentration is the concentration giving 20% of the maximal glutamate response. Agonist or positive allosteric modulator activity(ies) are evaluated in comparison to basal signals evoked by buffer B or EC20 glutamate alone, respectively.
For orientation: Calcium assays in cells follow changes in intracellular calcium, usually with a dye or a luminescent sensor.
In the case of `Cc1cc(O[C@H]2CCN(C3COC3)C2)cc2c(=O)[nH]c(-c3cc4ccsc4cn3)nc12` [Compound 83-S, S-8-Methyl-6-(1-oxetan-3-yl-pyrrolidin-3-yloxy)-2-thieno[2,3-c]pyridin-5-yl-3H-quinazolin-4-one], the EC50 was at most 0.1 µM. In the case of `Cc1cc(C(=O)N2CCOCC2)cc2c(=O)[nH]c(-c3cc4cccn4cn3)nc12` [Compound 135, 8-Methyl-6-(morpholine-4-carbonyl)-2-pyrrolo[1,2-c]pyrimidin-3-yl-3H-quinazolin-4-one], the EC50 fell in the range of 0.1 to 1 µM. `O=c1[nH]c(-c2cc(C(F)(F)F)c(Cl)cn2)nc2ccc(OCCCc3ccncc3)cc12` [Compound 14, 2-[5-chloro-4-(trifluoromethyl)-2-pyridyl]-6-[3-(4-pyridyl)propoxy]-3H-quinazolin-4-one hydrochloride]: the EC50 was in the range of 1 to 10 µM. Same read-out and setting: the figure for `Cc1cc(O[C@@H]2CCN(C3COC3)C2)cc2c(=O)[nH]c(-c3cc4ccsc4cn3)nc12` [Compound 83-R, R-8-Methyl-6-(1-oxetan-3-yl-pyrrolidin-3-yloxy)-2-thieno[2,3-c]pyridin-5-yl-3H-quinazolin-4-one] is 0.1 to 1 µM; for `Cc1nc(-c2nc3ccc(OCCCc4ccncc4)cc3c(=O)[nH]2)co1` [Compound 22, 2-(2-Methyl-oxazol-4-yl)-6-(3-pyridin-4-yl-propoxy)-3H-quinazolin-4-one hydrochloride] it is 1 to 10 µM.

Regarding `O=c1[nH]c(-c2cc3sccc3cn2)nc2ccc(OCc3ccc(Br)cc3)cc12` [Compound 24, 6-(4-Bromo-benzyloxy)-2-thieno[3,2-c]pyridin-6-yl-3H-quinazolin-4-one], the EC50 is over 10 µM.

As for `Cc1cc(OCCN2CCC3(CC2)COC3)cc2c(=O)[nH]c(-c3cc4ccsc4cn3)nc12` [Compound 84, 8-Methyl-6-[2-(2-oxa-7-aza-spiro[3.5]non-7-yl)-ethoxy]-2-thieno[2,3-c]pyridin-5-yl-3H-quinazolin-4-one], the EC50 fell in the range of 0.1 to 1 µM.

For `O=c1[nH]c(-c2cc3ccsc3cn2)nc2cc(C(F)(F)F)c(OCCCc3ccncc3)cc12` [Compound 70, 6-(3-Pyridin-4-yl-propoxy)-2-thieno[2,3-c]pyridin-5-yl-7-trifluoromethyl-3H-quinazolin-4-one hydrochloride], the EC50 lay within 1 to 10 µM.

For `O=c1[nH]c(-c2cc3ccsc3cn2)nc2c(Cl)cc(OCCCc3ccncc3)cc12` [Compound 72, 8-Chloro-6-(3-pyridin-4-yl-propoxy)-2-thieno[2,3-c]pyridin-5-yl-3H-quinazolin-4-one hydrochloride], the EC50 lay within 0.1 to 1 µM. `Cc1cc(OCC2CCN(S(C)(=O)=O)CC2)cc2c(=O)[nH]c(-c3cc4ccsc4cn3)nc12` [Compound 88, 6-(1-Methanesulfonyl-piperidin-4-ylmethoxy)-8-methyl-2-thieno[2,3-c]pyridin-5-yl-3H-quinazolin-4-one]: the EC50 was at most 0.1 µM. `Cc1cc(CN2CCC(C(=O)N(C)C)CC2)cc2c(=O)[nH]c(-c3cc4sccc4cn3)nc12` [Compound 156, N,N-Dimethyl-14(8-methyl-4-oxo-2-(thieno[3,2-c]pyridin-6-yl)-3,4-dihydroquinazolin-6-yl)methyl)piperidine-4-carboxamide hydrochloride]: the EC50 is at most 0.1 µM. As to `CC(=O)N1CCC(c2ccc3nc(-c4cc5ccsc5cn4)[nH]c(=O)c3c2)CC1` [Compound 57, 6-(1-acetyl-piperidin-4-yl)-2-thieno[2,3-c]pyridin-5-yl-3H-quinazolin-4-one], the EC50 was 0.1 to 1 µM. As for `Cc1cc(CN2CCOC(C)(C)C2)cc2c(=O)[nH]c(-c3cc4sccc4cn3)nc12` [Compound 153, 6-[(2,2-Dimethylmorpholin-4-yl)methyl]-8-methyl-2-thieno[3,2-c]pyridin-6-yl-3H-quinazolin-4-one hydrochloride], the EC50 was at most 0.1 µM. The same measure, in the same setting: the figure for `Cc1cc(N2CCC3(CCCOC3)C2)cc2c(=O)[nH]c(-c3cc4ccsc4cn3)nc12` (centres unmarked) [Compound 92, 8-Methyl-6-(7-oxa-2-aza-spiro[4.5]dec-2-yl)-2-thieno[2,3-c]pyridin-5-yl-3H-quinazolin-4-one] is at most 0.1 µM; for `Cc1cc(NCC(C)(C)O)cc2c(=O)[nH]c(-c3cc4ccsc4cn3)nc12` [Compound 94, 6-(2-Hydroxy-2-methyl-propylamino)-8-methyl-2-thieno[2,3-c]pyridin-5-yl-3H-quinazolin-4-one] it is 0.1 to 1 µM; for `Cc1cc(CCCOc2ccc3nc(-c4cc5ccsc5cn4)[nH]c(=O)c3c2)ccn1` [Compound 63, 6-[3-(2-Methyl-pyridin-4-yl)-propoxy]-2-thieno[2,3-c]pyridin-5-yl-3H-quinazolin-4-one hydrochloride] it is 0.1 to 1 µM. On the same count and under the same terms, the same measure for `CC(=O)N1CCCC(CCOc2cc(C)c3nc(-c4cc5ccsc5cn4)[nH]c(=O)c3c2)C1` (centres unmarked) [Compound 96, 6-[2-(1-Acetyl-piperidin-3-yl)-ethoxy]-8-methyl-2-thieno[2,3-c]pyridin-5-yl-3H-quinazolin-4-one]: at most 0.1 µM.

On to `Cc1cc(O[C@H](C)C2CCOCC2)cc2c(=O)[nH]c(-c3cc(C(F)(F)F)ccn3)nc12` [Compound 111-R, R-8-Methyl-6-[1-(tetrahydro-pyran-4-yl)-ethoxy]-2-(4-trifluoromethyl-pyridin-2-yl)-3H-quinazolin-4-one], for which the EC50 lay in the range of 0.1 to 1 µM. In the case of `O=c1[nH]c(-c2cc3ccsc3cn2)nc2ccc(OCCCc3ccncc3)c(Cl)c12` [Compound 71, 5-Chloro-6-(3-pyridin-4-yl-propoxy)-2-thieno[2,3-c]pyridin-5-yl-3H-quinazolin-4-one hydrochloride], the EC50 is over 10 µM.

Take `Cc1cc(OC2CCN(C3COC3)CC2)cc2c(=O)[nH]c(-c3cc4cccn4cn3)nc12` [Compound 109, 8-methyl-6-(1-oxetan-3-yl-piperidin-4-yloxy)-2-pyrrolo[1,2-c]pyrimidin-3-yl-3H-quinazolin-4-one]: the EC50 was at most 0.1 µM. Take `COCC1CCN(Cc2cc(C)c3nc(-c4cc5sccc5cn4)[nH]c(=O)c3c2)CC1` [Compound 157, 6-((4-(Methoxymethyl)piperidin-1-yl)methyl)-8-methyl-2-(thieno[3,2-c]pyridin-6-yl)quinazolin-4(3H)-one hydrochloride]: the EC50 was 0.1 to 1 µM. Consider `CC(C)(C)OC(=O)N1CCC(Oc2ccc3nc(-c4ccccn4)[nH]c(=O)c3c2)CC1` [Compound 39, 4-(4-Oxo-2-pyridin-2-yl-3,4-dihydro-quinazolin-6-yloxy)-piperidine-1-carboxylic acid tert-butyl ester], for which the EC50 was 1 to 10 µM.

As for `Cc1cc(OCCCc2ccncc2)cc2c(=O)[nH]c(-c3cc(C(F)(F)F)ccn3)nc12` [Compound 101, 8-Methyl-6-(3-pyridin-4-yl-propoxy)-2-(4-trifluoromethyl-pyridin-2-yl)-3H-quinazolin-4-one hydrochloride], the EC50 was 0.1 to 1 µM. Consider `Cc1cc(N2CCC3(CC2)COC3)cc2c(=O)[nH]c(-c3cc4ccsc4cn3)nc12` [Compound 89, 8-Methyl-6-(2-oxa-7-aza-spiro[3.5]non-7-yl)-2-thieno[2,3-c]pyridin-5-yl-3H-quinazolin-4-one], for which the EC50 was at most 0.1 µM. For the molecule `O=c1[nH]c(-c2cc(Br)ccn2)nc2ccc(OCCCc3ccncc3)cc12` [Compound 18, 2-(4-bromo-2-pyridyl)-6-[3-(4-pyridyl)propoxy]-3H-quinazolin-4-one], the EC50 lay within 0.1 to 1 µM. Regarding `CC(=O)N1CCC(COc2ccc3nc(-c4cc(C(F)(F)F)ccn4)[nH]c(=O)c3c2)CC1` [Compound 44, 6-(1-Acetyl-piperidin-4-ylmethoxy)-2-(4-trifluoromethyl-pyridin-2-yl)-3H-quinazolin-4-one], the EC50 was 0.1 to 1 µM. Consider `Cc1cc(CN2CCN(C)CC2)cc2c(=O)[nH]c(-c3cc4ccsc4cn3)nc12` [Compound 132, 8-Methyl-6-[(4-methylpiperazin-1-yl)methyl]-2-thieno[2,3-c]pyridin-5-yl-3H-quinazolin-4-one dihydrochloride], for which the EC50 fell in the range of 1 to 10 µM.

Still in this assay, the particulars now being: up to 100 μM.
For `Cl.O=c1[nH]c(-c2cccc(Cl)c2)nc2ccc(OCCCc3ccncc3)cc12` [Compound 20, 2-(3-chlorophenyl)-6-[3-(4-pyridyl)propoxy]-3H-quinazolin-4-one hydrochloride], the “PAM activity on mGluR4” value is “no PAM activity”. `Cl.O=c1[nH]c(-c2cccnc2)nc2ccc(OCCCc3ccncc3)cc12` [Compound 6, 2-Pyridin-3-yl-6-(3-pyridin-4-yl-propoxy)-3H-quinazolin-4-one hydrochloride]: the “PAM activity on mGluR4” value is “no PAM activity”.

Source of the values: patent publication US20220089609A1, “SUBSTITUTED QUINAZOLINONE DERIVATIVES AND THEIR USE AS POSITIVE ALLOSTERIC MODULATORS OF MGLUR4” (DOMAIN THERAPEUTICS, priority 2018, published 2022).
